Laboratory results published in patent US7423068B2, “Control of parasitic mites of honey bees” (The United States of America as represented by the …, priority 2001, dated 2008).
Marks after values point to notes of the source that are not given here.

Key:
[1] = Release rate of 2-heptanone from acrylic blocks; type: physicochemical; settings: acrylic block, 34° C.
From the text: Blocks having the following composition were made:
Polymerization was triggered with 2.9% benzoyl peroxide and 1.1% dimethylparatoluidine. Each block weighed approximately 30 grams (Diam. 60 mm, Height 10 mm). The blocks were molded in an aluminum cup.
However, it was found, because of a packaging problem, that the blocks lost some active ingredient during transportation and had only 30% 2-heptanone. To avoid any further loss of active ingredient, the unused samples were stored at all times in a refrigerator at 4° C. The value of 30% 2-heptanone was kept for further processing of the data. The rate at which 2-heptanone was released from the blocks was measured. The experimental procedure consisted in weighing the acrylic blocks left in their aluminum mold at regular intervals. The blocks were kept in an incubator set at 34° C. (temperature of the center of the brood nest in a honey bee hive). It is noteworthy that the incubator is not air tight and that the incubator glass door had to be opened to retrieve the sample to be weighed. An Isotemp Incubator from Fisher Scientific was used. The incubator has a measured volume of 71 liters. The samples were monitored for 44 days.

Varroa mites = assay: Bulls eye petri dish bioassay for attractiveness; type: in vivo, Varroa jacobsoni; settings: for % of Varroa at distance from Target Source 2.5 cm / % of Varroa at distance from Target Source 3.8 cm / % of Varroa at distance from Target Source 6.3 cm / % of Varroa in Target / % of Varroa at distance from Target Source 1.3 cm / % of Varroa at distance from Target Source 5.1 cm: 0.04 g of 30% 2-heptanone acrylic block
Protocol: A third bioassay to test for attractiveness of 2-heptanone to Varroa was conducted in petri dishes with a diameter of 13.97 cm and a volume of 76.64 cm^3. The dishes were prepared as described previously in the first bioassay of this Example using 20% gel formulation of 2-heptanone. However, the petri dishes for this bioassay were modified by drilling a hole 1.6 cm in diameter into the center of the dish. This hole was large enough to fit a 1.5 mL Eppendorf® tube which would serve as the dispenser for the 2-heptanone. The lid of each petri dish was labeled in a “bulls eye” fashion with concentric circles at 1.27 cm increments from the center where the Eppendorf® tube was located. The maximum distance from the center was 6.35 cm. The Eppendorf® tube is considered the target. In the treatment dishes, 0.04 g of 2-heptanone in acrylic block formulation (30% concentration) was placed in the Eppendorf® tube and covered with a small amount of sterile cotton. Control dishes were prepared in the same manner as the treatment dishes but the Eppendorf® tubes contained only cotton. Mites (4-5 per dish) were placed in each dish in the area furthest from the center where the Eppendorf® tube was located.
After the dishes were prepared a square section of mosquito netting large enough to cover the top of the petri dish was placed over the dish and secured with a rubber band. The mosquito netting was used instead of a lid on the dish. The mesh of the netting was wide enough to allow the 2-heptanone to volatilize, but prevented the mites from escaping. The marked lids were placed on top of the dishes every 30 minutes to document mite movement. After the measurements were made, the lids were immediately removed.
A fourth test of attractiveness was conducted in the petri dishes that were prepared as described above. In this test 0.06 g of 2-heptanone (30% concentration in acrylic block delivery system) was placed in the center target of the treatment plates. Control plates contained an empty Eppendorf® tube. The mites were placed 3.17 cm from the target. The mites could move closer or farther away from the target. Two treatment and two Control plates with 5 mites each were observed.

[2] = exposure 1 hr, significantly different from Control

**Q.** Which “% 2-Heptanone loss (initial conc. 30%)” value ([1]; Day 0) does the source give for `CCCCCC(C)=O` [2-Heptanone] here?
**A.** The value was 0%.

**Q.** What about the “Daily release in percentage” value ([1]; Day 0) of the same compound?
**A.** The value was 0 percentage.

**Q.** What about the “% 2-Heptanone loss (initial conc. 30%)” value ([1]; Day 1) of the same compound?
**A.** Its value is 29.13%.

**Q.** And the “Daily release in percentage” value ([1]; Day 1)?
**A.** The value was 29.13 percentage.

**Q.** What about the “% 2-Heptanone loss (initial conc. 30%)” value ([1]; Day 2) of the same compound?
**A.** The value was 38.76%.

**Q.** And the “Daily release in percentage” value ([1]; Day 2)?
**A.** Its value is 9.63 percentage.

**Q.** And the “% 2-Heptanone loss (initial conc. 30%)” value ([1]; Day 3)?
**A.** The value was 49.04%.

**Q.** And the “Daily release in percentage” value ([1]; Day 3)?
**A.** The value was 10.28 percentage.

**Q.** And the “% 2-Heptanone loss (initial conc. 30%)” value ([1]; Day 4)?
**A.** Its value is 55.72%.

**Q.** What about the “Daily release in percentage” value ([1]; Day 4) of the same compound?
**A.** Its value is 6.68 percentage.

**Q.** What about the “% 2-Heptanone loss (initial conc. 30%)” value ([1]; Day 7) of the same compound?
**A.** The value was 68.85%.

**Q.** And the “Daily release in percentage” value ([1]; Day 7)?
**A.** Its value is 4.38 percentage.

**Q.** What about the “% 2-Heptanone loss (initial conc. 30%)” value ([1]; Day 8) of the same compound?
**A.** The value was 71.82%.

**Q.** And the “Daily release in percentage” value ([1]; Day 8)?
**A.** The value was 2.97 percentage.

**Q.** And the “% 2-Heptanone loss (initial conc. 30%)” value ([1]; Day 9)?
**A.** The value was 74.7%.

**Q.** And the “Daily release in percentage” value ([1]; Day 9)?
**A.** Its value is 2.88 percentage.

**Q.** What about the “% 2-Heptanone loss (initial conc. 30%)” value ([1]; Day 10) of the same compound?
**A.** Its value is 76.09%.

**Q.** And the “Daily release in percentage” value ([1]; Day 10)?
**A.** The value was 1.39 percentage.

**Q.** What about the “% 2-Heptanone loss (initial conc. 30%)” value ([1]; Day 11) of the same compound?
**A.** The value was 77.88%.

**Q.** And the “Daily release in percentage” value ([1]; Day 11)?
**A.** Its value is 1.79 percentage.

**Q.** What about the “% 2-Heptanone loss (initial conc. 30%)” value ([1]; Day 14) of the same compound?
**A.** Its value is 82.31%.

**Q.** What about the “Daily release in percentage” value ([1]; Day 14) of the same compound?
**A.** Its value is 1.48 percentage.

**Q.** And the “% 2-Heptanone loss (initial conc. 30%)” value ([1]; Day 15)?
**A.** The value was 83.43%.

**Q.** What about the “Daily release in percentage” value ([1]; Day 15) of the same compound?
**A.** The value was 1.12 percentage.

**Q.** And the “% 2-Heptanone loss (initial conc. 30%)” value ([1]; Day 16)?
**A.** The value was 84.39%.

**Q.** And the “Daily release in percentage” value ([1]; Day 16)?
**A.** Its value is 0.96 percentage.

**Q.** And the “% 2-Heptanone loss (initial conc. 30%)” value ([1]; Day 18)?
**A.** The value was 86.24%.

**Q.** What about the “Daily release in percentage” value ([1]; Day 18) of the same compound?
**A.** Its value is 0.92 percentage.

**Q.** What about the “% 2-Heptanone loss (initial conc. 30%)” value ([1]; Day 21) of the same compound?
**A.** Its value is 88.43%.

**Q.** And the “Daily release in percentage” value ([1]; Day 21)?
**A.** Its value is 0.73 percentage.

**Q.** And the “% 2-Heptanone loss (initial conc. 30%)” value ([1]; Day 24)?
**A.** The value was 89.98%.

**Q.** And the “Daily release in percentage” value ([1]; Day 24)?
**A.** The value was 0.52 percentage.

**Q.** And the “% 2-Heptanone loss (initial conc. 30%)” value ([1]; Day 30)?
**A.** Its value is 92.36%.

**Q.** And the “Daily release in percentage” value ([1]; Day 30)?
**A.** Its value is 0.4 percentage.

**Q.** And the “% 2-Heptanone loss (initial conc. 30%)” value ([1]; Day 44)?
**A.** The value was 95.21%.

**Q.** What about the “Daily release in percentage” value ([1]; Day 44) of the same compound?
**A.** The value was 0.2 percentage.

**Q.** What about the “% of Varroa at distance from Target Source 2.5 cm” value (Varroa mites; exposure 1 hr) of the same compound?
**A.** The value was 7.5%.

**Q.** What about the “% of Varroa at distance from Target Source 3.8 cm” value (Varroa mites; exposure 1 hr) of the same compound?
**A.** The value was 25.0%.

**Q.** What about the “% of Varroa at distance from Target Source 6.3 cm” value (Varroa mites; exposure 1 hr) of the same compound?
**A.** Its value is 17.5%.

**Q.** And the “% of Varroa in Target” value (Varroa mites; exposure 1 hr)?
**A.** Its value is 0%.

**Q.** And the “% of Varroa at distance from Target Source 1.3 cm” value (Varroa mites; [2])?
**A.** The value was 27.5* %.

**Q.** What about the “% of Varroa at distance from Target Source 5.1 cm” value (Varroa mites; [2]) of the same compound?
**A.** The value was 16.2* %.

**Q.** And the “% of Varroa at distance from Target Source 1.3 cm” value (Varroa mites; exposure 2 hrs)?
**A.** Its value is 32.5%.

**Q.** What about the “% of Varroa at distance from Target Source 2.5 cm” value (Varroa mites; exposure 2 hrs) of the same compound?
**A.** The value was 20.0%.

**Q.** What about the “% of Varroa at distance from Target Source 3.8 cm” value (Varroa mites; exposure 2 hrs) of the same compound?
**A.** The value was 12.5%.

**Q.** And the “% of Varroa at distance from Target Source 5.1 cm” value (Varroa mites; exposure 2 hrs)?
**A.** The value was 15.0%.

**Q.** And the “% of Varroa at distance from Target Source 6.3 cm” value (Varroa mites; exposure 2 hrs)?
**A.** The value was 10.0%.

**Q.** What about the “% of Varroa in Target” value (Varroa mites; exposure 2 hrs) of the same compound?
**A.** The value was 7.5%.

**Q.** What about the “% of Varroa at distance from Target Source 1.3 cm” value (Varroa mites; exposure 3 hrs) of the same compound?
**A.** Its value is 45.6%.

**Q.** And the “% of Varroa at distance from Target Source 2.5 cm” value (Varroa mites; exposure 3 hrs)?
**A.** The value was 10.6%.

**Q.** What about the “% of Varroa at distance from Target Source 3.8 cm” value (Varroa mites; exposure 3 hrs) of the same compound?
**A.** The value was 22.5%.

**Q.** And the “% of Varroa at distance from Target Source 5.1 cm” value (Varroa mites; exposure 3 hrs)?
**A.** Its value is 12.5%.

**Q.** And the “% of Varroa at distance from Target Source 6.3 cm” value (Varroa mites; exposure 3 hrs)?
**A.** The value was 7.5%.

**Q.** What about the “% of Varroa in Target” value (Varroa mites; exposure 3 hrs) of the same compound?
**A.** Its value is 3.1%.

**Q.** And the “% of Varroa at distance from Target Source 1.3 cm” value (Varroa mites; exposure 4 hrs)?
**A.** Its value is 42.2%.

**Q.** What about the “% of Varroa at distance from Target Source 2.5 cm” value (Varroa mites; exposure 4 hrs) of the same compound?
**A.** The value was 13.3%.

**Q.** And the “% of Varroa at distance from Target Source 3.8 cm” value (Varroa mites; exposure 4 hrs)?
**A.** The value was 20.0%.

**Q.** And the “% of Varroa at distance from Target Source 5.1 cm” value (Varroa mites; exposure 4 hrs)?
**A.** The value was 18.8%.

**Q.** And the “% of Varroa at distance from Target Source 6.3 cm” value (Varroa mites; exposure 4 hrs)?
**A.** The value was 5.5%.

**Q.** What about the “% of Varroa in Target” value (Varroa mites; exposure 4 hrs) of the same compound?
**A.** The value was 0%.

**Q.** What about the “% of mites that moved into the target” value (Varroa mites; fourth test, 0.06 g of 30% 2-heptanone acrylic block, 4 hr. observation, Controls 0.0%) of the same compound?
**A.** Its value is 9.1%.

**Q.** What about the “% of mites that moved within 1.27 cm of the target” value (Varroa mites; fourth test, 0.06 g of 30% 2-heptanone acrylic block, mites placed 3.17 cm from target, 4 hr. observation, Controls 6.2%) of the same compound?
**A.** Its value is 38.4%.
